# Tests used:
# c-Kit = molecular target: T1, c-Kit (Homo sapiens, UniProt P10721); assay: c-kit kinase inhibition; format: biochemical; conditions: Table 4
# T1 construct: whole cytoplasmic domain of c-Kit (aa 544-976); made in house; host or cells: Sf9 or High Five (baculovirus)
# human EphB4 = molecular target: T2, human EphB4 (Homo sapiens, UniProt P54760); assay: Cellular assay EphB4 receptor autophosphorylation, transfected A375 cells, sandwich ELISA; format: cell-based; conditions: inhibition of autophosphorylation of EphB4 kinase, Table 6
# T2 construct: expressed in transfected cells; host or cells: A375 human melanoma cells (ATCC CRL-1619)
# T2 sequence (P54760 16-987): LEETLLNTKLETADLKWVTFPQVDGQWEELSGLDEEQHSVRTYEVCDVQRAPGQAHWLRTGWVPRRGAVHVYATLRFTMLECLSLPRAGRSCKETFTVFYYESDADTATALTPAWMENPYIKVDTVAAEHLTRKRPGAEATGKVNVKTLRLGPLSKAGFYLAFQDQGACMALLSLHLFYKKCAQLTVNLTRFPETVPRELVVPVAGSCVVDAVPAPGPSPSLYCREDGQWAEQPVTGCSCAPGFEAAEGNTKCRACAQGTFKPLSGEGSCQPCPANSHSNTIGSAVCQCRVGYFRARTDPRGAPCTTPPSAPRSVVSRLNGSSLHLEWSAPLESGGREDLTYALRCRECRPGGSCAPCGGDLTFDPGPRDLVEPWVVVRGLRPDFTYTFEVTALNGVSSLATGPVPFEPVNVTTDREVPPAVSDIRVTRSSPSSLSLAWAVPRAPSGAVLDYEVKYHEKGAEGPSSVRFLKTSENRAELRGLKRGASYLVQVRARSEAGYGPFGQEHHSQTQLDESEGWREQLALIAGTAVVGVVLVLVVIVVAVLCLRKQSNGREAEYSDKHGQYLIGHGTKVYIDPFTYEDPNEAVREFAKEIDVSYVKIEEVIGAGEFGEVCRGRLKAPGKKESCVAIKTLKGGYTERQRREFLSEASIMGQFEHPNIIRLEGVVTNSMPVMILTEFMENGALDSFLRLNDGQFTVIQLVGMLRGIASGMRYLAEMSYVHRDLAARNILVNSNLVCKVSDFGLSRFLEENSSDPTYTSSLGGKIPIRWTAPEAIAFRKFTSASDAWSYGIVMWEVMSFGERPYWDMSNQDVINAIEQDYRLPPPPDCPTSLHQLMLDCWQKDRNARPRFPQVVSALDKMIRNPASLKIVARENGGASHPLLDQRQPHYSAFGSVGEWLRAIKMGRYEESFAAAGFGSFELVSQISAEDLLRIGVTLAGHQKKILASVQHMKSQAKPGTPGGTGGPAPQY
# Experimental: The inhibition of EphB4 receptor autophosphorylation can be confirmed with an in vitro experiment in cells such as transfected A375 human melanoma cells (ATCC Number: CRL-1619), which permanently express human EphB4 (SwissProt AccNo P54760), are seeded in complete culture medium (with 10% fetal calf serum=FCS) in 6-well cell-culture plates and incubated at 37° C. under 5% CO2 until they show about 90% confluency. The compounds to be tested are then diluted in culture medium (without FCS, with 0.1% bovine serum albumin) and added to the cells. (Controls comprise medium without test compounds). Ligand induced autophosphorylation is induced by the addition of 1 microg/ml soluble ephrinB2-Fc (s-ephrinB2-Fc: R&D Biosystems, CatNr 496-EB) and 0.1 microM ortho-vanadate. After a further 20 minutes incubation at 37° C., the cells are washed twice with ice-cold PBS (phosphate-buffered saline) and immediately lysed in 200 μl lysis buffer per well. The lysates are then centrifuged to remove the cell nuclei, and the protein concentrations of the supernatants are determined using a commercial protein assay (PIERCE). The lysates can then either be immediately used or, if necessary, stored at −20° C.
# A sandwich ELISA is carried out to measure the EphB4 phosphorylation: To capture phosphorylated EphB4 protein 100 ng/well of ephrinB2-Fc (s-ephrinB2-Fc: R&D Biosystems, CatNr 496-EB) is immobilized MaxiSorb (Nunc) ELISA plates. The plates are then washed and the remaining free protein-binding sites are saturated with 3% TopBlock® (Juro, Cat. # TB232010) in phosphate buffered saline with Tween 20° (polyoxyethylen(20)sorbitane monolaurate, ICI/Uniquema) (PBST). The cell lysates (100 μg protein per well) are then incubated in these plates for 1 h at room temperature. After washing the wells three times with PBS an antiphosphotyrosine antibody coupled with alkaline phosphatase (PY 20 Alkaline Phosphate conjugated: ZYMED, Cat Nr03-7722) is added and incubated for another hour. […] The difference between the signal of the positive control (stimulated with vanadate and s-ephrinB2-Fc) and that of the negative control (not stimulated) corresponds to maximal EphB4 phosphorylation (=100%). The activity of the tested substances is calculated as percent inhibition of maximal EphB4 phosphorylation, wherein the concentration of substance that induces half the maximum inhibition is defined as the IC50 (inhibitory dose for 50% inhibition). […] The mice are treated with the test compound (e.g. 25, 50 or 100 mg/kg p.o. once daily) or vehicle starting on the day of implantation of the chamber and continuing for 4 days after. At the end of the treatment, the mice are killed, and the chambers are removed. The vascularized tissue growing around the chamber is carefully removed and weighed, and the blood content is assessed by measuring the hemoglobin content of the tissue (Drabkins method; Sigma, Deisenhofen, Germany). It has been shown previously that these growth factors induce dose-dependent increases in weight and blood content of this tissue growing (characterized histologically to contain fibroblasts and small blood vessels) around the chambers and that this response is blocked by antibodies that specifically neutralize VEGF (see Wood J M et al., Cancer Res. 60(8), 2178-2189, (2000); and Schlaeppi et al., J. Cancer Res. Clin. Oncol. 125, 336-342, (1999)). With this model, inhibition can be shown in the case of compounds of the formula (I).
# T1 sequence (P10721 544-976): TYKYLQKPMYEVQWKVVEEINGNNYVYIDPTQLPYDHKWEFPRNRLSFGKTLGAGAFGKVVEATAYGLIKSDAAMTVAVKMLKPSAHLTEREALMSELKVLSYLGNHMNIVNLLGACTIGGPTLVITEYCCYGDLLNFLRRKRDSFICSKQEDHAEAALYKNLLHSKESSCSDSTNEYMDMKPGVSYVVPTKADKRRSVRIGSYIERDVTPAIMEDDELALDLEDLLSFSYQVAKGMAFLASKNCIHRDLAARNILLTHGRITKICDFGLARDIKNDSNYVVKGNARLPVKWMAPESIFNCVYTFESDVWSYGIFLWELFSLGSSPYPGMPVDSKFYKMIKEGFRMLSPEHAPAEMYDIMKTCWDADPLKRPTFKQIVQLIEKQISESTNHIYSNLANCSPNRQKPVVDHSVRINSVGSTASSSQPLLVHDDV
IC50 (c-Kit),IC50 (human EphB4),SMILES
< 10000 nM,,"CN1CCN(c2ccc(-c3cnn4c(N)c(-c5cccc(O)c5)cnc34)cc2)CC1 [Example 1, 3-{7-Amino-3-[4-(4-methyl-piperazin-1-yl)-phenyl]-pyrazolo[1,5-a]pyrimidin-6-yl}-phenol]"
,< 1000 nM,"Cc1nc2c(-c3cccc(N4CCN(C)CC4)c3)cnn2c(N)c1-c1ccc(F)cc1 [Example 80, 6-(4-Fluoro-phenyl)-5-methyl-3-[3-(4-methyl-piperazin-1-yl)-phenyl]-pyrazolo[1,5-a]pyrimidin-7-ylamine]"
,< 1000 nM,"Cc1nc2c(-c3ccc(N4CCN(C)CC4)cc3)cnn2c(N)c1-c1ccc(F)c(Cl)c1 [Example 83, 6-(3-Chloro-4-fluoro-phenyl)-5-methyl-3-[4-(4-methyl-piperazin-1-yl)-phenyl]-pyrazolo[1,5-a]pyrimidin-7-ylamine]"
,< 1000 nM,"Cc1nc2c(-c3cccc(N4CCN(CCO)CC4)c3)cnn2c(N)c1-c1cccc(Cl)c1 [Example 90, 2-(4-{3-[7-Amino-6-(3-chloro-phenyl)-5-methyl-pyrazolo[1,5-a]pyrimidin-3-yl]-phenyl}-piperazin-1-yl)-ethanol]"
,< 1000 nM,"COc1ccc(-c2cnn3c(N)c(-c4cccc(Cl)c4)c(C)nc23)cc1OC [Example 93, 6-(3-Chloro-phenyl)-3-(3,4-dimethoxy-phenyl)-5-methyl-pyrazolo[1,5-a]pyrimidin-7-ylamine]"
,< 1000 nM,"Cc1nc2c(-c3cccc(N4CCN(CCO)CC4)c3)cnn2c(N)c1-c1ccc(F)c(Cl)c1 [Example 100, 2-(4-{3-[7-Amino-6-(3-chloro-4-fluoro-phenyl)-5-methyl-pyrazolo[1,5-a]pyrimidin-3-yl]-phenyl}-piperazin-1-yl)-ethanol]"
